In patent publication US10065963B2 (Incyte Corporation, priority 2015, dated 2018):
Where a name gives a salt, the structure may show the parent alone.

How the values were obtained:
[1] = target: PI3Kγ (p110γ) Recombinant Human Protein (Homo sapiens (Human), UniProt P48736); test: PI3K-γ scintillation proximity assay; type: biochemical; details: 2 μM ATP, 20 μM PIP2
[2] = target: PI3Kδ (p110δ/p85α) Recombinant Human Protein (Homo sapiens (Human), UniProt O00329); test: PI3Kδ scintillation proximity assay; type: biochemical
PI3Kδ (p110δ/p85α) Recombinant Human Protein, sequence (O00329 whole entry): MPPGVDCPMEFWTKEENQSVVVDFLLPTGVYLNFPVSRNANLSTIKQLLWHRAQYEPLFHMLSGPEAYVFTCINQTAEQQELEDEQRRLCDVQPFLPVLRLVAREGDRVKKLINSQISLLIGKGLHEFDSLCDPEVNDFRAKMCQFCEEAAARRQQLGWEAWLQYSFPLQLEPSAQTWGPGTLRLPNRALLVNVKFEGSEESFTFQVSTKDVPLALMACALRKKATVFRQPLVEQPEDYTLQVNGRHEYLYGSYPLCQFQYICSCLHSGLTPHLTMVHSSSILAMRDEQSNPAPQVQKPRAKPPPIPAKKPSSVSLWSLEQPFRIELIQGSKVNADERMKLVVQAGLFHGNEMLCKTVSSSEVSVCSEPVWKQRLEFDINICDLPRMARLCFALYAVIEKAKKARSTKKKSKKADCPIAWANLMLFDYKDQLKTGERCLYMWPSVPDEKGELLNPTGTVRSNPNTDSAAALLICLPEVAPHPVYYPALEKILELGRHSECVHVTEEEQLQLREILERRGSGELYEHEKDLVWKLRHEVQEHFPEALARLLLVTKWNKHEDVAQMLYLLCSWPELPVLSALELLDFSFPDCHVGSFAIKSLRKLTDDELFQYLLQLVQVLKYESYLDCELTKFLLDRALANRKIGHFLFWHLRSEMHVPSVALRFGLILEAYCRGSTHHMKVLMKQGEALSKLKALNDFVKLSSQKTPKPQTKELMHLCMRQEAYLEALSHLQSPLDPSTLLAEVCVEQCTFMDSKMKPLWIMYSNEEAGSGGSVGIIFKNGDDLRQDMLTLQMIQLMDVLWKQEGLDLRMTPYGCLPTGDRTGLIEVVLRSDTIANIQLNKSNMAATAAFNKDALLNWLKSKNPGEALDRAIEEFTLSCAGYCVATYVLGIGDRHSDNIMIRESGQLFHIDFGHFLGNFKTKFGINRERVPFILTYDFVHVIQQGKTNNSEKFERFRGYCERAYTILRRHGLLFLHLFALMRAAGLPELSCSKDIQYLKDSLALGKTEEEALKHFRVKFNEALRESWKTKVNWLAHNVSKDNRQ
PI3Kδ (p110δ/p85α) Recombinant Human Protein, sequence (P27986 whole entry partner): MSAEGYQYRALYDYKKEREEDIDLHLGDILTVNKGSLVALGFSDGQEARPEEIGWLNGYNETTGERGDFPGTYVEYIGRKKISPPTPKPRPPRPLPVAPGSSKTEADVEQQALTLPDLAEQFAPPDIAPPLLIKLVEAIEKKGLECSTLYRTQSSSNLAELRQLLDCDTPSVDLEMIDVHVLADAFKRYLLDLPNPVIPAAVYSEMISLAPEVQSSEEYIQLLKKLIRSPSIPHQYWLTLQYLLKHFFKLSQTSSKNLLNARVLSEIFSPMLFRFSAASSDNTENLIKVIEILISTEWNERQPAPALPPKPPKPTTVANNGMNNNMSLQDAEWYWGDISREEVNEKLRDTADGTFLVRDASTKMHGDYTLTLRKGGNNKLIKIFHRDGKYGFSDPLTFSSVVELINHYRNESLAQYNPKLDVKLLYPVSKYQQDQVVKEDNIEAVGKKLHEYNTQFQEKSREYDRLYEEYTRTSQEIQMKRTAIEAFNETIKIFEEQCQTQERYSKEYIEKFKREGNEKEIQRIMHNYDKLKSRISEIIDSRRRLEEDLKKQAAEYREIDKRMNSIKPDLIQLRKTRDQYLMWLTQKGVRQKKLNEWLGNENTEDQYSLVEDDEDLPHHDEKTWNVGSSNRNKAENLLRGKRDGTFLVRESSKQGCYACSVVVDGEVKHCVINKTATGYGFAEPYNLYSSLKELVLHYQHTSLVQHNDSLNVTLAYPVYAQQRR

PI3Kγ (p110γ) Recombinant Human Protein, sequence (P48736 whole entry): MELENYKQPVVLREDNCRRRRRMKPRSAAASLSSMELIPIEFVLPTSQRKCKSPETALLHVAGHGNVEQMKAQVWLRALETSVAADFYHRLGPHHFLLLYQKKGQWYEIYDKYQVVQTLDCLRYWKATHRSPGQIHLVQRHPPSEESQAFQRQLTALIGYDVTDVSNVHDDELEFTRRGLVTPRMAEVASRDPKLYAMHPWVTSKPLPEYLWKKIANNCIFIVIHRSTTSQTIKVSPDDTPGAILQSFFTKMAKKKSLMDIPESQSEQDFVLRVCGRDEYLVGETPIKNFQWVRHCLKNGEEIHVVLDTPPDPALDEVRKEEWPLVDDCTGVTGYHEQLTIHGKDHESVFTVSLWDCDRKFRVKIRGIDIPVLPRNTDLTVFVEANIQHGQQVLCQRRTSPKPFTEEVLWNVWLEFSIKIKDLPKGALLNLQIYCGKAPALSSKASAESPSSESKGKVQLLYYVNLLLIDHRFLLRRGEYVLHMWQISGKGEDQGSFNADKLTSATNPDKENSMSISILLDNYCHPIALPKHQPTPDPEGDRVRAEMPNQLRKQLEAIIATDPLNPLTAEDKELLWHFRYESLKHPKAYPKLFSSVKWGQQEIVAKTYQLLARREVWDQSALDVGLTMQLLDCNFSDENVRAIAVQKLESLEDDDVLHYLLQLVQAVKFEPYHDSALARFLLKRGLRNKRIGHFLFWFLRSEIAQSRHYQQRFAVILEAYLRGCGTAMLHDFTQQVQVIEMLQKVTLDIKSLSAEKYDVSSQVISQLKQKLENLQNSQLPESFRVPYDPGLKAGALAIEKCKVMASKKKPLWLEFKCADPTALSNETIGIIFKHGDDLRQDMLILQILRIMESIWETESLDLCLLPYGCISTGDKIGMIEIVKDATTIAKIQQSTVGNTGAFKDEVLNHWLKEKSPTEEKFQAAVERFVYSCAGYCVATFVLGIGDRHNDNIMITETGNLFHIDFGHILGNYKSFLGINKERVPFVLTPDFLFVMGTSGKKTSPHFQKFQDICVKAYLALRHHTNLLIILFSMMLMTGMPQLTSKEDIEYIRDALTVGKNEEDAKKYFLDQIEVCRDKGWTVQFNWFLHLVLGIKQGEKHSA

IC50 [1] [nM] | IC50 ([2]; 2 μM ATP, 20 μM PIP2) [nM] | IC50 ([2]; Table B, Assay C) [nM] | SMILES
< 500 | < 2000 | – | CC(NC(=O)c1c(N)nn2cccnc12)c1cc(C2CC2)c2cncn2c1-c1ccccc1 (racemic) [Example 117, 2-Amino-N-[1-(8-cyclopropyl-5-phenylimidazo[1,5-a]pyridin-6-yl)ethyl]pyrazolo[1,5-a]pyrimidine-3-carboxamide trifluoroacetate salt]
< 500 | < 500 | – | CNC(=O)c1ccc(-c2c(C(C)NC(=O)c3c(N)nn4cccnc34)cc(Cl)c3cncn23)cn1 (racemic) [Example 132, 2-Amino-N-[1-{8-chloro-5-{6-[(methylamino)carbonyl]pyridin-3-yl}imidazo [1,5-a]pyridin-6-yl)ethyl]pyrazolo[1,5-a]pyrimidine-3-carboxamide trifluoroacetate salt]
< 500 | < 2000 | – | CC(NC(=O)c1c(N)nn2cccnc12)c1cc(Cl)c2cncn2c1C1CCCCC1 (racemic) [Example 183, 2-Amino-N-[1-(8-chloro-5-cyclohexylimidazo[1,5-a]pyridin-6-yl)ethyl]pyrazolo[1,5-a]pyrimidine-3-carboxamide trifluoroacetate salt]
< 500 | ≥ 2000 | – | Cc1nnc2c(Cl)cc(C(C)NC(=O)c3c(N)nn4cccnc34)c(-c3ccccc3)n12 (racemic) [Example 184, 2-Amino-N-[1-(8-chloro-3-methyl-5-phenyl[1,2,4]triazolo[4,3-a]pyridin-6-yl)ethyl]pyrazolo[1,5-a]pyrimidine-3-carboxamide trifluoroacetate salt]
< 500 | ≥ 2000 | – | CC(NC(=O)c1c(N)nn2cccnc12)c1cc(Cl)c2nncn2c1-c1ccccc1 (racemic) [Example 185, 2-Amino-N-[1-(8-chloro-5-phenyl[1,2,4]triazolo[4,3-a]pyridin-6-yl)ethyl]pyrazolo[1,5-a]pyrimidine-3-carboxamide trifluoroacetate salt]
> 2000 | ≥ 2000 | – | CCOc1c(C(C)NC(=O)c2c(N)nn3cccnc23)cc(Cl)c2cn[nH]c12 (single isomer, unassigned) [Example 3b, 2-amino-N-[1-(4-chloro-7-ethoxy-1H-indazol-6-yl)ethyl]pyrazolo[1,5-a]pyrimidine-3-carboxamide trifluoroacetate]
– | – | 50 to 200 | CCOc1c(C(C)n2nc(C)c3c(N)ncnc32)cc(Cl)c(F)c1C1CNC(=O)C1 (single isomer, unassigned) [Example 32a, 4-{3-[1-(4-amino-3-methyl-1H-pyrazolo[3,4-d]pyrimidin-1-yl)ethyl]-5-chloro-2-ethoxy-6-fluorophenyl}pyrrolidin-2-one, reference compound]
– | – | < 50 | CCOc1c(C(C)n2nc(C)c3c(N)ncnc32)cc(Cl)c(F)c1C1CNC(=O)C1 (single isomer, unassigned) [Example 32b, 4-{3-[1-(4-amino-3-methyl-1H-pyrazolo[3,4-d]pyrimidin-1-yl)ethyl]-5-chloro-2-ethoxy-6-fluorophenyl}pyrrolidin-2-one, reference compound]
– | – | < 50 | CCOc1c(C(C)n2nc(C)c3c(N)ncnc32)cc(Cl)c(F)c1C1CNC(=O)C1 (single isomer, unassigned) [Example 32c, 4-{3-[1-(4-amino-3-methyl-1H-pyrazolo[3,4-d]pyrimidin-1-yl)ethyl]-5-chloro-2-ethoxy-6-fluorophenyl}pyrrolidin-2-one, reference compound]
– | – | 50 to 200 | CCOc1c(C(C)n2nc(C)c3c(N)ncnc32)cc(Cl)c(F)c1C1CNC(=O)C1 (single isomer, unassigned) [Example 32d, 4-{3-[1-(4-amino-3-methyl-1H-pyrazolo[3,4-d]pyrimidin-1-yl)ethyl]-5-chloro-2-ethoxy-6-fluorophenyl}pyrrolidin-2-one, reference compound]
< 2000 | < 2000 | – | CCOc1c(C(C)NC(=O)c2c(N)nn3cccnc23)cc(Cl)c2cn(CCOC)nc12 (stereo not shown) [Example 5a, 2-amino-N-(1-(4-chloro-7-ethoxy-2-(2-methoxyethyl)-2H-indazol-6-yl)ethyl)pyrazolo[1,5-a]pyrimidine-3-carboxamide trifluoroacetate]
< 2000 | < 2000 | – | CCOc1c(C(C)NC(=O)c2c(N)nn3cccnc23)cc(Cl)c2cn(CCO)nc12 (stereo not shown) [Example 6a, 2-amino-N-(1-(4-chloro-7-ethoxy-2-(2-hydroxyethyl)-2H-indazol-6-yl)ethyl)pyrazolo[1,5-a]pyrimidine-3-carboxamide trifluoroacetate]
> 2000 | ≥ 2000 | – | CCOc1c(C(C)NC(=O)c2c(N)nn3cccnc23)cc(Cl)c2cn(CC#N)nc12 (stereo not shown) [Example 7a, 2-amino-N-(1-(4-chloro-2-(cyanomethyl)-7-ethoxy-2H-indazol-6-yl)ethyl)pyrazolo[1,5-a]pyrimidine-3-carboxamide trifluoroacetate]
< 2000 | ≥ 2000 | – | CCOc1c(C(C)NC(=O)c2c(N)nn3cccnc23)cc(Cl)c2cn(Cc3ccccc3)nc12 (stereo not shown) [Example 8a, 2-amino-N-(1-(2-benzyl-4-chloro-7-ethoxy-2H-indazol-6-yl)ethyl)pyrazolo[1,5-a]pyrimidine-3-carboxamide trifluoroacetate]
< 2000 | ≥ 2000 | – | CCOc1c(C(C)NC(=O)c2c(N)nn3cccnc23)cc(Cl)c2cn(CC(C)C)nc12 (stereo not shown) [Example 9a, 2-amino-N-(1-(4-chloro-7-ethoxy-2-isobutyl-2H-indazol-6-yl)ethyl)pyrazolo[1,5-a]pyrimidine-3-carboxamide trifluoroacetate]
< 2000 | ≥ 2000 | – | CCOc1c(C(C)NC(=O)c2c(N)nn3cccnc23)cc(Cl)c2cn(C3CCC3)nc12 (stereo not shown) [Example 10a, 2-amino-N-(1-(4-chloro-2-cyclobutyl-7-ethoxy-2H-indazol-6-yl)ethyl)pyrazolo[1,5-a]pyrimidine-3-carboxamide trifluoroacetate]
< 2000 | ≥ 2000 | – | CCOc1c(C(C)NC(=O)c2c(N)nn3cccnc23)cc(Cl)c2cn(C(C)C)nc12 (stereo not shown) [Example 11a, 2-amino-N-(1-(4-chloro-7-ethoxy-2-isopropyl-2H-indazol-6-yl)ethyl)pyrazolo[1,5-a]pyrimidine-3-carboxamide trifluoroacetate]
– | – | < 50 | COc1c(C(C)n2nc(C)c3c(N)ncnc32)cc(Cl)c(C#N)c1C1CN(C[C@H](C)O)C1 (stereo partly drawn) [Example 29, 4-[1-(4-amino-3-methyl-1H-pyrazolo[3,4-d]pyrimidin-1-yl)ethyl]-6-chloro-2-{1-[(2S)-2-hydroxypropyl]azetidin-3-yl}-3-methoxybenzonitrile]
– | – | < 50 | COc1c(C(C)n2nc(C)c3c(N)ncnc32)cc(Cl)c(C#N)c1C1CN(CCO)C1 (stereo not shown) [Example 30, 4-[1-(4-amino-3-methyl-1H-pyrazolo[3,4-d]pyrimidin-1-yl)ethyl]-6-chloro-2-[1-(2-hydroxyethyl)azetidin-3-yl]-3-methoxybenzonitrile]
– | – | < 50 | CCOc1c(C(C)n2nc(C)c3c(N)ncnc32)cc(C)c(C#N)c1-c1ccc(C(=O)N(C)C)nc1 (stereo not shown) [Example 31, 5-{3-[1-(4-amino-3-methyl-1H-pyrazolo[3,4-d]pyrimidin-1-yl)ethyl]-6-cyano-2-ethoxy-5-methylphenyl}-N,N-dimethylpyridine-2-carboxamide, reference compound]
< 500 | < 500 | – | CCOc1c(C(C)NC(=O)c2c(N)nc3ccc(C)nn23)cc(Cl)c2cn[nH]c12 (stereo not shown) [Example 46, 2-Amino-N-(1-(4-chloro-7-ethoxy-1H-indazol-6-yl)ethyl)-6-methylimidazo[1,2-b]pyridazine-3-carboxamide]
< 500 | < 500 | – | CCOc1c(C(C)NC(=O)c2c(N)nc3ccc(N4CCCCC4)nn23)cc(Cl)c2cn[nH]c12 (stereo not shown) [Example 47, 2-Amino-N-(1-(4-chloro-7-ethoxy-1H-indazol-6-yl)ethyl)-6-(piperidin-1-yl)imidazo[1,2-b]pyridazine-3-carboxamide]
< 500 | ≥ 2000 | – | CC(NC(=O)c1c(N)nn2cccnc12)c1cc(Cl)c2cncn2c1N1CCCC(F)C1 (stereo not shown) [Example 73C-73D, 2-Amino-N-{1-[8-chloro-5-(3-fluoropiperidin-1-yl)imidazo[1,5-a]pyridin-6-yl]ethyl}pyrazolo[1,5-a]pyrimidine-3-carboxamide]
< 500 | < 2000 | – | CC(NC(=O)c1c(N)nn2cccnc12)c1cc(Cl)c2cn[nH]c2c1C1=CCN(C(=O)OCc2ccccc2)CC1 (stereo not shown) [Example 98, Benzyl 4-[6-(1-{[(2-aminopyrazolo[1,5-a]pyrimidin-3-yl)carbonyl]amino}ethyl)-4-chloro-2H-indazol-7-yl]-3,6-dihydropyridine-1(2H)-carboxylate bis(trifluoroacetate)]

SMILES | IC50 [1] [nM] | IC50 ([2]; 2 μM ATP, 20 μM PIP2) [nM] | IC50 ([2]; Table B, Assay C) [nM]
CC(NC(=O)c1c(N)nn2cccnc12)c1cc(Cl)c2c(C(F)(F)F)ncn2c1N1CCNS(=O)(=O)CC1 (racemic) [Example 159, 2-Amino-N-{1-[8-chloro-5-(1,1-dioxido-1,2,5-thiadiazepan-5-yl)-1-(trifluoromethyl)imidazo[1,5-a]pyridin-6-yl]ethyl}pyrazolo[1,5-a]pyrimidine-3-carboxamide trifluoroacetate salt] | < 500 | < 2000 | –
CCc1n[nH]c2c(-c3ccccc3)c(C(C)NC(=O)c3c(N)nn4cccnc34)cc(Cl)c12 (stereo not shown) [Example 51, 2-Amino-N-(1-(4-chloro-3-ethyl-7-phenyl-1H-indazol-6-yl)ethyl)pyrazolo[1,5-a]pyrimidine-3-carboxamide trifluoroacetate] | < 2000 | ≥ 2000 | –
CC(NC(=O)c1c(N)nn2cccnc12)c1cc(Cl)c2cn[nH]c2c1OCCCN (stereo not shown) [Example 64, 2-Amino-N-{1-[7-(3-aminopropoxy)-4-chloro-1H-indazol-6-yl]ethyl}pyrazolo[1,5-a]pyrimidine-3-carboxamide bis(trifluoroacetate)] | < 500 | < 500 | –
CC(NC(=O)c1c(N)nn2cccnc12)c1cc(Cl)c2cn[nH]c2c1C1=CCNCC1 (stereo not shown) [Example 99, 2-Amino-N-{1-[4-chloro-7-(1,2,3,6-tetrahydropyridin-4-yl)-2H-indazol-6-yl]ethyl}pyrazolo[1,5-a]pyrimidine-3-carboxamide bis(trifluoroacetate)] | < 500 | < 100 | –
